Data set [1] concerns rabbit skeletal myofibrils (fast skeletal myofibrils). The experiment in a line: Activation of fast skeletal myofibrils (PUMA assay, AC1.4). It counts as biochemical. The following applies: calcium at pCa25, AC1.4 = concentration at which the compound increased the enzymatic activity. In a few lines:
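Detergent-washed rabbit psoas myofibrils (~90% fast fibers), calcium set to give 25% of maximal rate (pCa25). ATPase followed by pyruvate kinase/lactate dehydrogenase-coupled NADH oxidation, absorbance at 340 nm. PM12 buffer: 12 mM PIPES, 2 mM MgCl2, 1 mM DTT, pH 6.8.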

Data set [2] relates to ankle plantarflexor muscle. The experiment in a line: Rat isometric ankle plantarflexor muscle force. The note with it: continuous intravenous infusion over sixty minutes, 30 Hz nerve stimulation, estimated EC50 = concentration at which muscle force is 50% of pre-dose maximum tension. It counts as in vivo, Sprague Dawley rats. An excerpt: Female Sprague Dawley rats were placed under a stable anesthetic plane with inhaled isoflurane (1-5%). One incision was made on the mid-thigh region of the right leg to expose the sciatic nerve. To prevent co-contraction of the ankle dorsiflexors, an additional incision was made lateral to the patella to isolate and sever the peroneal nerve. Rats were then placed on a temperature-maintained in situ muscle analysis rig (Aurora Scientific, Model 806C). The knee was immobilized in a clamp between two sharpened screws and the foot was taped to a footplate attached to a force transducer (Aurora Scientific, Ontario, Canada). Stainless steel needle electrodes (0.10 mm) were hooked around the exposed sciatic nerve. Isometric ankle plantarflexor muscle contractile force was assessed with the ankle joint at 90° flexion. A 30 Hz electrical stimulation (under supramaximal voltage conditions) was applied to the nerve and the resulting muscle force was recorded via a servomotor. A pre-dose 30 Hz force response was established as the baseline force. A pre-dose 150 Hz force response was established as the maximum isometric force. Compounds were formulated in 50% polyethylene glycol (PEG): 16% Cavitron: 10% dimethylacetamide (DMA) and administered by continuous intravenous infusion over a sixty minute period. The muscle force response to compound was measured every two minutes over the dosing period. Data were reported as an estimated EC50 value, which is the concentration at which muscle force is 50% of the pre-dose maximum tension. In Table 10, “Example Compound” refers to the compound labeled with the same number in Table 2.

The nature of data set [3]: Thermodynamic aqueous solubility (FaSSIF). It counts as physicochemical. As to the method:
Aqueous solubility was determined by suspending sufficient compound in relevant media to give a maximum final concentration of >10 mg/ml of the parent free-form of the compound. The suspension was equilibrated at 37° C., on a Heidolph plate shaker set to 750 rpm for 24 hours. The pH of the saturated solution was then measured, and the suspension filtered through a glass fibre C filter (particle retention 1.2 μm) and diluted appropriately. Quantitation was by HPLC with reference to a standard solution of approximately 0.15 mg/ml in DMSO. Different volumes of the standard, diluted and undiluted sample solutions were injected. The solubility was calculated using the peak areas determined by integration of the peak found at the same retention time as the principal peak in the standard injection.

Data set [4] is described as follows: Gravimetric vapour sorption (GVS). Type of data set: physicochemical. The following applies: for GVS mass change / GVS water uptake, mol equivalents of water: between 0 and 90% RH, 25° C.; for XRPD after GVS analysis: form after GVS measurement; for Hygroscopicity by GVS: 0-90% RH. How it is done:
Sorption isotherms were obtained using a SMS DVS Intrinsic moisture sorption analyser, controlled by DVS Intrinsic Control software. The sample temperature was maintained at 25° C. by the instrument controls. The humidity was controlled by mixing streams of dry and wet nitrogen, with a total flow rate of 200 ml/min. The relative humidity was measured by a calibrated Rotronic probe (dynamic range of 1.0-100% RH), located near the sample. The weight change, (mass relaxation) of the sample as a function of % RH was constantly monitored by a microbalance (accuracy ±0.005 mg).
Typically, 5-30 mg of sample was placed in a tared mesh stainless steel basket under ambient conditions. The sample was loaded and unloaded at 40% RH and 25° C. (typical room conditions). A moisture sorption isotherm was performed as outlined below (2 scans per complete cycle). The standard isotherm was performed at 25° C. at 10% RH intervals over a 0-90% RH range. Typically, a double cycle (4 scans) was carried out. Data analysis was carried out within Microsoft Excel using the DVS Analysis Suite.
The sample was recovered after completion of the isotherm and re-analysed by XRPD.

Data set [5] is described as follows: Water determination by Karl Fischer titration (KF). It counts as physicochemical. As to the method: The water content of each sample was measured on a Metrohm 874 Oven Sample Processor at 150° C. with 851 Titrano Coulometer using Hydranal Coulomat AG oven reagent and nitrogen purge. Weighed solid samples were introduced into a sealed sample vial. Approximately 10 mg of sample was used per titration and duplicate determinations were made. […] Data collection and analysis were performed using Tiamo software.

The nature of data set [6]: Static storage stability of crystalline form by XRPD. Type of data set: physicochemical.
The mark [7] stands for this setting: 40° C./75% RH, 7 days (one week).

pEC50: −log10 of the molar value. In brackets after ≈: the same amount, converted by molar mass.

Broadly, the pEC50 is the negative decadic logarithm of the EC50, by convention in mol/L. As a reminder, the solubility (thermodynamic) is solubility found after equilibrating the solid with the medium.

As to `CC(C)[C@H]1C(=O)Nc2ccccc2CN1C(N)=O` [Compound 7, (S)-3-Isopropyl-2-oxo-1,2,3,5-tetrahydro-4H-benzo[e][1,4]diazepine-4-carboxamide], the AC1.4 in data set [1] worked out at 1.80 µM. The pEC50 in data set [2] was 4.39.

Regarding `CC[C@H](C)[C@H]1C(=O)Nc2cc(F)cc(F)c2CN1C(N)=O` [Compound 8, (S)-3-((S)-sec-butyl)-6,8-difluoro-2-oxo-1,2,3,5-tetrahydro-4H-benzo[e][1,4]diazepine-4-carboxamide], the AC1.4 in data set [1] came to 0.37 µM. The negative-log EC50 (pEC50) in data set [2] was 4.82.

For the molecule `CC[C@H](C)[C@H]1C(=O)Nc2ccc(F)cc2CN1C(N)=O` [Compound 9, (S)-3-((S)-sec-Butyl)-7-fluoro-2-oxo-1,2,3,5-tetrahydro-4H-benzo[e][1,4]diazepine-4-carboxamide], the AC1.4 in data set [1] was 0.28 µM. Moreover, the pEC50 in data set [2] is 4.72.

Regarding `CC[C@H](C)[C@H]1C(=O)Nc2cncc(F)c2CN1C(N)=O` [Compound 10, (S)-3-((S)-sec-Butyl)-6-fluoro-2-oxo-1,2,3,5-tetrahydro-4H-pyrido[3,4-e][1,4]diazepine-4-carboxamide], in data set [1], the AC1.4 was 0.71 µM. Moreover, in data set [2], the pEC50 was 4.73.

`CC[C@H](C)[C@H]1C(=O)Nc2cnccc2CN1C(N)=O` [Compound 12, (S)-3-((S)-sec-butyl)-2-oxo-1,2,3,5-tetrahydro-4H-pyrido[3,4-e][1,4]diazepine-4-carboxamide]: in data set [1], the AC1.4 was found to be 0.84 µM. In data set [2], the negative logarithm of the EC50 (pEC50) was 4.41.

Regarding `CC[C@H](C)[C@H]1C(=O)Nc2ccccc2CN1C(=O)N1CC(O)C1` [Compound 32, (S)-3-((S)-sec-Butyl)-4-(3-hydroxyazetidine-1-carbonyl)-1,3,4,5-tetrahydro-2H-benzo[e][1,4]diazepin-2-one], in data set [1], the AC1.4 was found to be 0.13 µM. For the same molecule, the negative logarithm of the EC50 (pEC50) in data set [2] was 4.90.

For the molecule `CC[C@H](C)[C@H]1C(=O)Nc2ccccc2CN1C(=O)CCO` [Compound 49, (S)-3-((S)-sec-butyl)-4-(3-hydroxypropanoyl)-1,3,4,5-tetrahydro-2H-benzo[e][1,4]diazepin-2-one], in data set [1], the AC1.4 turned out to be 0.55 µM. The negative-log EC50 (pEC50) in data set [2] was 4.55.

Consider `CC(C)[C@H]1C(=O)Nc2ccccc2CN1/C(N)=N/C#N` [Compound 64, (S,E)-N′-Cyano-3-isopropyl-2-oxo-1,2,3,5-tetrahydro-4H-benzo[e][1,4]diazepine-4-carboximidamide], for which, in data set [1], the AC1.4 turned out to be 0.53 µM. Also, in data set [2], the pEC50 was 4.70.

With `CC[C@H](C)[C@H]1C(=O)Nc2cccc(F)c2CN1C(N)=O` [Compound 65, (S)-3-((S)-sec-butyl)-6-fluoro-2-oxo-1,2,3,5-tetrahydro-4H-benzo[e][1,4]diazepine-4-carboxamide], the AC1.4 in data set [1] amounted to 0.37 µM. Moreover, the pEC50 in data set [2] is 4.95.

Regarding `CC[C@H](C)[C@H]1C(=O)Nc2cnccc2CN1/C(N)=N/C#N` [Compound 82, (S,E)-3-((S)-sec-butyl)-N′-cyano-2-oxo-1,2,3,5-tetrahydro-4H-pyrido[3,4-e][1,4]diazepine-4-carboximidamide], the AC1.4 in data set [1] is 0.24 µM. The pEC50 in data set [2] is 4.67.

Regarding `CC[C@H](C)[C@H]1C(=O)Nc2ccccc2CN1C(=O)N[C@H]1CCN(C)C1` [Compound 144, (S)-3-((S)-sec-butyl)-N-((S)-1-methylpyrrolidin-3-yl)-2-oxo-1,2,3,5-tetrahydro-4H-benzo[e][1,4]diazepine-4-carboxamide], the AC1.4 in data set [1] worked out at 0.28 µM. In addition, the pEC50 in data set [2] is 4.98.

As for `CC(C)[C@H]1C(=O)Nc2cc(F)ccc2CN1C(N)=O` [Compound 357, (S)-8-fluoro-3-isopropyl-2-oxo-1,2,3,5-tetrahydro-4H-benzo[e][1,4]diazepine-4-carboxamide], in data set [1], the AC1.4 came out at 1.69 µM. Also, in data set [2], the negative-log EC50 (pEC50) was 4.23.

For the molecule `CC[C@H](C)[C@H]1C(=O)Nc2cncc(F)c2CN1C(N)=O` [Crystalline Form I, (S)-3-((S)-sec-Butyl)-6-fluoro-2-oxo-1,2,3,5-tetrahydro-4H-pyrido[3,4-e][1,4]diazepine-4-carboxamide], the “XRPD of solid residues” value in data set [3] (solid residues after thermodynamic solubility in FaSSIF (37° C.)) is “Form I”. The solubility (thermodynamic) at 24 h in data set [3] (thermodynamic from solid, FaSSIF, 37° C., equilibrated 24 hours) was found to be 460 µg/mL (≈ 1640 µM). In data set [4], the GVS mass change is 0.29% Mass change between 0 and 90% RH; the “GVS water uptake, mol equivalents of water” value is 0.04 mol. equivalents water; the “XRPD after GVS analysis” value is “Unchanged”. Also, the KF water content in data set [5] is on record as 0.1% water.

As to `CC[C@H](C)[C@H]1C(=O)Nc2cncc(F)c2CN1C(N)=O` [Form II], in data set [4], the “Hygroscopicity by GVS” value is listed as “slightly hygroscopic”, the GVS mass change is 0.23% and the “XRPD after GVS analysis” value is listed as “unchanged”. Also, the “Static storage, XRPD” value in data set [6] (setting [7]) was “no changes”.

For `CC[C@H](C)[C@H]1C(=O)Nc2cncc(F)c2CN1C(N)=O` [Form I], in data set [4], the “Hygroscopicity by GVS” value is reported as “slightly hygroscopic”; the GVS mass change was 0.29%; the “GVS water uptake, mol equivalents of water” value was 0.04 mol. equivalents water; the “XRPD after GVS analysis” value is reported as “unchanged”. For the same molecule, in data set [6] (25° C./97% RH (one week for Form I)), the “Static storage, XRPD” value is “unchanged”. Further, in data set [6] (setting [7]), the “Static storage, XRPD” value is reported as “unchanged”. The KF water content in data set [5] turned out to be 0.1%.

These data come from US12441691B2 (Cytokinetics, Inc., priority 2020, dated 2025).
